Assay results reported in US5342970A, “Hydrosoluble coumarin derivatives, their preparation and their use as an enzyme substrate or for the preparation of such substrates” (priority 1991, dated 1994).
Values joined by “and” are separate entries in the source; they are usually repeats but may differ in a detail not shown here. Equal entries are not always repeated. Structures can show the parent of a compound that is named as a salt. Where two headings read alike, the source gives them in different places.

Key:
Leucine aminopeptidase [1] = settings: known substrates, for comparison; medium with organic solvent; cited from earlier work
Leucine aminopeptidase [2] = settings: comparison substrate Leu-AMC; cited from earlier work
[3] = Excitation and emission spectra of substrates and hydrolysis products (Table 1); format: physicochemical
[4] = Ratio of fluorescence intensities of hydrolysis product and substrate; format: physicochemical; settings: equimolar concentration, at the measurement wavelength
[5] = Solubility in water and in water-ethanol mixtures; format: physicochemical; settings: water; read-out: Solubility in water
Leucine aminopeptidase [6] = assay: Enzymatic hydrolysis of substrate by leucine aminopeptidase, Michaelis kinetics; format: biochemical
Method: As a result of the possible presence in the substrate Leu ATC (compound 13) of a trace of ATC, i.e. 7-amino-4-(2',5',8'-trioxanonyl)-coumarin, which is the hydrolysis product, use was made of a kinetic method for determining the enzymatic activity of leucine aminopeptidase, i.e. the signal is constituted by the fluorescence intensity difference at 2 minutes and 12 minutes. In this way it is possible to eliminate the interference of the ATC present prior to hydrolysis.
The initial speed of the reaction was studied for a concentration of the substrate constituted by compound 13 (Leu-ATC) between 2×10^-5 mole/l and […] using the following reagents:
Crystalline Leu-ATC hydrochloride of example 13: aqueous solutions 4×10^-5 to 4×10^-3 mole/l,
Leucine aminopeptidase (Sigma, ref N5006): aqueous solution at 7.53 μg/ml in 0.2M Tris buffer, pH7.8,
Tris buffer: solution A: 0.2M Tris, i.e. 24.23 g/l, solution B: 0.1M HCl.
This buffer is prepared by mixing 25 ml of solution A and 33.7 ml of solution B and by topping up to 100 ml with water. The pH must be 7.8.
1.17N perchloric acid solution (1/10 dilution of the pure acid).
For this determination, preparation firstly takes place in tubes of the following range of substrate concentrations (compound 13, Leu-ATC): 0-2-4-10-20-50-100-200×10^-5 M (final concentration).
To each tube is added a concentration of 1.51 μg/ml of Leucine aminopeptidase, everything being dissolved in the Tris buffer at pH 7.8, preheated to 37° C., whilst the tubes are in a water bath thermostatically controlled to 37° C. After 2 min, 250 μl are removed from each tube and poured into tubes containing 250 μl of perchloric solution and 750 μl of water. The same operation is repeated after 6 min. All the tubes are diluted to 1/1000. The intensity of the fluorescence IF is measured at 370/480 nm. The difference of the intensities at 6 and 2 min: […] constitutes the signal.
The corresponding ATC concentration is calculated relative to a calibration range between 10^-9 and 10^-8 M. The results are given in the following table 2:
The speed constant kcat is calculated by the ratio Vm/Ez, in which Vm is the maximum speed in μmole/s/mg/Ez and Ez is the enzyme quantity in 1 mg, expressed in μmole. The molar mass of Leucine aminopeptidase is 300000.
This curve has a hyperbolic behaviour characteristic of a Michaelis kinetics. The experimental points were adjusted to the corresponding equation by non-linear regression (Graphpad software) and made it possible to determine the affinity constant Km, the maximum speed Vm and the speed constant kcat (ratio of the maximum speed to the enzyme concentration).

Leucine aminopeptidase [7] = assay: Determination of leucine aminopeptidase, analytical characteristics of the reaction; format: biochemical
Method: The reaction conditions were determined following the preceding stage. The Leu-ATC substrate concentration was chosen to give a maximum speed (1 mM). The reaction time was made 12 minutes by measuring the difference of the fluorescence intensities at 12 and 2 minutes. In order to evaluate the quantification limit, measure the repeatability and test the linearity, […] were prepared containing concentrations of 0-0.05-0.10-0.25-0.50-1 μg/ml using the same reagents as previously and giving the following range:
In order to carry out the evaluation, a series of tubes was prepared containing 750 μl of water+250 μl of 1.17N perchloric solution and at time 2 min, transfer thereto took place of 250 μl of each sample of the enzyme range. The same took place at time 12 min. This was followed by the dilution of all the tubes to 1/200 in water and the reading of the fluorescence (370/480 nm) with a gain of 2 on the Perkin Elmer LS3B fluorimeter.
The results obtained are given in FIG. 25, with which is the mean calibration curve illustrating the variation of the fluorescence intensity as a function of the enzyme concentration (μg/ml). This calibration curve was determined by linear regression. The mean standard deviation is 153±7.36 for the gradient and -3.10±1.16 for the intercept.
The quantification limit, calculated by the ratio […], is 0.02 μg/ml.
The repeatability, evaluated by the variation coefficient, is 17% at 0.05 μg/ml, 8% at 0.25 μg/ml and 4% at 1 μg/ml.

[8] = Excitation and emission spectra of ATC derivatives (Table 4); format: physicochemical; settings: 10^-7 M; Z-Arg-ATC in 50 mM Tris pH 8, 10 mM CaCl2
Method: The excitation and emission spectra of ATC and Z-Arg-ATC were plotted on the basis of 10^-7 M solutions in the 50 mM Tris buffer at pH 8 containing 10 mM of CaCl2. The maxima obtained are indicated in table 4 with the corresponding maxima of Leu-ATC.

[9] = substrate: COCCOCCOCc1cc(=O)oc2cc(NC(=O)[C@H](CCCNC(=N)N)NC(=O)OCc3ccccc3)ccc12; assay: Hydrolysis of substrate by trypsin, Michaelis kinetics; format: biochemical, pig; settings: other: Tris buffer pH 8.0 + CaCl2 10 mM, ambient temperature
Method: Crystalline Z-Arg-ATC hydrochloride (Seratec): 10^-3 M solution in Tris buffer, pH 8.0+CACl2, 10 mM.
Pig pancreas trypsin (SIGMA T0134): 10^-3 M solution in Tris buffer, pH 8.0+CACl2, 10 mM.
Tris buffer: solution A: 0.2M Tris, i.e. 24.23 g/l+CaCl2, 40 mM, i.e. 5.88 g/l; solution B: 0.1M HCl.
This buffer is prepared by mixing 250 ml of solution A with 268 ml of solution B and by topping up to 1 liter with water.
Acetate buffer: solution A: 0.02M acetic acid; solution B: 0.02M sodium acetate.
This buffer is prepared by mixing volume by volume solutions A and B to obtain a buffer at pH 4.75.
Aqueous 1.17N perchloric acid solution (1/10 dilution of pure acid).
The following substrate concentration range was prepared in tubes: 0-0.2-0.5-1-2-5-10×10^-4 M (final concentration).
To each tube was added a concentration of 6.67 μg/ml of trypsin, everything being dissolved in the Tris buffer pH 8.0+CaCl2, 10 mM and at ambient temperature. The enzyme is added at time 0. After 2 minutes, 250 μl are removed from each tube and poured into tubes containing 250 μl of 1.17N perchloric acid and 500 μl of water. The tubes are centrifuged and then the solution is diluted to 1/250 in the acetate buffer. The same operation is repeated at 17 min. The fluorescence intensity is measured at 380/490nm. The difference of the intensities at 17 and 2 min constitutes the signal.
The corresponding ATC concentration is calculated compared with a calibration range from 5×10^-9 to 2×10^-7 M.
This was followed by the determination of Km, Vm, kcat and the ratio kcat/Km. The results obtained are given in table 6, which also gives for comparison purposes the values obtained with Z-L-Arg-AMC and Bz DL Arg-AMC and Bz -L-Arg-AMC.

[10] = Tris buffer pH 7.8, 37° C., no organic solvent
[11] = words, vs Leu AMC and Leu-βnaphthylamide
[12] = fluorescence intensity vs enzyme concentration (μg/ml), linear regression

Cc1cc(=O)oc2cc(NC(=O)[C@@H](N)CC(C)C)ccc12 [Leu AMC]
Km (Leucine aminopeptidase [1]): 160 µM | Vm (Leucine aminopeptidase [1]): 4.0 μmole/mg Ez/min | detection limit (Leucine aminopeptidase [2]): 0.03 µg/mL | Maximum excitation wavelength, substrate ([3]; 10^-7 M in Tris buffer, pH 7.8): 327 nm | Maximum fluorescence wavelength, substrate ([3]; 10^-7 M in Tris buffer, pH 7.8): 390 nm

Nc1ccc2c(CS(=O)(=O)O)cc(=O)oc2c1 [AMCS, 7-amino-4-coumarinyl-methane sulphonic acid, reference compound]
ratio of the fluorescence intensities of the hydrolysis product and the substrate [4]: ~250

COCCOCCOCc1cc(=O)oc2cc(N)ccc12 [Compound 4, 7-amino-4-(2',5',8'-trioxanonyl)coumarin]
ratio of the fluorescence intensities of the hydrolysis product and the substrate [4]: approximately 400 | Maximum excitation wavelength, hydrolysis product ([3]; 10^-7 M in Tris buffer, pH 7.8): 350 nm | Maximum fluorescence wavelength, hydrolysis product ([3]; 10^-7 M in Tris buffer, pH 7.8): 465 nm | solubility [5]: 400 µg/mL and 1330 µM

COCCOCCOCc1cc(=O)oc2cc(NC(=O)[C@@H](N)CC(C)C)ccc12 [Compound 13, L-leucine-4-(2',5',8'-trioxanonyl)-7-coumarinylamide hydrochloride]
ATC concentration in hydrolysis solution (Leucine aminopeptidase [6]; Leu-ATC 2×10^-5 M): 1.7 µM/min | ATC concentration in working solution (Leucine aminopeptidase [6]; Leu-ATC 2×10^-5 M): 1.38 nM | IF(6)-IF(2) (Leucine aminopeptidase [6]; Leu-ATC 2×10^-5 M): 5.5 | ATC concentration in hydrolysis solution (Leucine aminopeptidase [6]; Leu-ATC 4×10^-5 M): 3.6 µM/min | ATC concentration in working solution (Leucine aminopeptidase [6]; Leu-ATC 4×10^-5 M): 2.88 nM | IF(6)-IF(2) (Leucine aminopeptidase [6]; Leu-ATC 4×10^-5 M): 11.5 | ATC concentration in hydrolysis solution (Leucine aminopeptidase [6]; Leu-ATC 10×10^-5 M): 6.6 µM/min | ATC concentration in working solution (Leucine aminopeptidase [6]; Leu-ATC 10×10^-5 M): 5.25 nM | IF(6)-IF(2) (Leucine aminopeptidase [6]; Leu-ATC 10×10^-5 M): 21 | ATC concentration in hydrolysis solution (Leucine aminopeptidase [6]; Leu-ATC 20×10^-5 M): 12.0 µM/min | ATC concentration in working solution (Leucine aminopeptidase [6]; Leu-ATC 20×10^-5 M): 9.63 nM | IF(6)-IF(2) (Leucine aminopeptidase [6]; Leu-ATC 20×10^-5 M): 38.5 | ATC concentration in hydrolysis solution (Leucine aminopeptidase [6]; Leu-ATC 50×10^-5 M): 14.1 µM/min | ATC concentration in working solution (Leucine aminopeptidase [6]; Leu-ATC 50×10^-5 M): 11.25 nM | IF(6)-IF(2) (Leucine aminopeptidase [6]; Leu-ATC 50×10^-5 M): 45 | ATC concentration in hydrolysis solution (Leucine aminopeptidase [6]; Leu-ATC 100×10^-5 M): 14.7 µM/min | ATC concentration in working solution (Leucine aminopeptidase [6]; Leu-ATC 100×10^-5 M): 11.75 nM | IF(6)-IF(2) (Leucine aminopeptidase [6]; Leu-ATC 100×10^-5 M): 47 | ATC concentration in hydrolysis solution (Leucine aminopeptidase [6]; Leu-ATC 200×10^-5 M): 15.0 µM/min | ATC concentration in working solution (Leucine aminopeptidase [6]; Leu-ATC 200×10^-5 M): 12.0 nM | IF(6)-IF(2) (Leucine aminopeptidase [6]; Leu-ATC 200×10^-5 M): 48 | Km (Leucine aminopeptidase [6]; [10]): 110 µM | Vm (Leucine aminopeptidase [6]; [10]): 10.3 μmole/mg Ez/min | kcat (Leucine aminopeptidase [6]; ratio Vm/Ez, pH 7.8, 37° C.): 51.5 s⁻¹ | affinity for Leucine aminopeptidase compared with the other substrates (Leucine aminopeptidase [6]; [11]): better than that of the two other substrates | maximum speed compared with the other substrates (Leucine aminopeptidase [6]; [11]): higher | repeatability (variation coefficient) (Leucine aminopeptidase [7]; at 0.05 μg/ml enzyme): 17% | repeatability (variation coefficient) (Leucine aminopeptidase [7]; at 0.25 μg/ml enzyme): 8% | repeatability (variation coefficient) (Leucine aminopeptidase [7]; at 1 μg/ml enzyme): 4% | gradient of calibration curve (Leucine aminopeptidase [7]; [12]): 153±7.36 | intercept of calibration curve (Leucine aminopeptidase [7]; [12]): -3.10±1.16 | quantification limit (Leucine aminopeptidase [7]; leucine aminopeptidase, ratio 3 b/a, substrate 1 mM, 12 min): 0.02 µg/mL | Maximum excitation wavelength, substrate ([3]; 10^-7 M in Tris buffer, pH 7.8): 330 nm | Maximum fluorescence wavelength, substrate ([3]; 10^-7 M in Tris buffer, pH 7.8): 405 nm | Stokes displacement compared with AMC and AMCS derivatives ([3]; words): greater | excitation maximum, substrate [8]: 330 nm | fluorescence maximum, substrate [8]: 405 nm

B1: Pig pancreas trypsin (Sus scrofa) (protein)
chain: IVGGYTCAANSIPYQVSLNSGSHFCGGSLINSQWVVSAAHCYKSRIQVRLGEHNIDVLEGNEQFINAAKIITHPNFNGNTLDNDIMLIKLSSPATLNSRVATVSLPRSCAAAGTECLISGWGNTKSSGSSYPSLLQCLKAPVLSDSSCKSSYPGQITGNMICVGFLEGGKDSCQGDSGGPVVCNGQLQGIVSWGYGCAQKNKPGVYTKVCNYVNWIQQTIAAN
Km [9]: 195 µM | Vmax [9]: 3.16 µM/min | kcat/Km [9]: 975 M⁻¹ s⁻¹
